Source: patent US20140315797A1, “Novel N-Terminally Modified Insulin Derivatives” (priority 2010, published 2014)
Starred links: 1 amine or outer side, 2 acyl side, 3 side chain; linkers in the order of their positions; H or OH if unused. Positions of bridges follow the written chain, without caps; N, C: chain ends. Groups on a side chain read outwards from the residue. Chains are numbered I, II in the order given. No end group written: not given here. *: point of attachment. Phe(Nα-CONH2) = NC(=O)N[C@@H](Cc1ccccc1)C(=O)*; C20 diacid = O=C(O)CCCCCCCCCCCCCCCCCCC(=O)*; C18 diacid = O=C(O)CCCCCCCCCCCCCCCCC(=O)*; C16 diacid = O=C(O)CCCCCCCCCCCCCCC(=O)*; NMe2Phe = CN(C)[C@@H](Cc1ccccc1)C(=O)*; γGlu = O=C(O)[C@H](CCC(=O)[*:2])N[*:1]; Hydantoyl = NC(=O)NCC(=O)*; AEEA = NCCOCCOCC(=O)O; Me2Gly = CN(C)CC(=O)*

Columns and labels:
[1] = Chemical stability of insulin analogues formulated in lipid formulations (UPLC purity, SEC HMWP); format: physicochemical; details: lipid formulation, 2 weeks, 25° C.
Description: Chemical stability of insulin analogues formulated in lipid formulations was assessed according to the protocol described here.
Composition of the formulation: […]
Insulin to be tested (75 μM)
The insulin to be tested (lyophilised from pH 7.5) is dissolved in propylenglycol in the dark for 16 hours. Diglycerol caprylate is added ad the mixture is stirred. Tween 20 is added and the mixture is stirred for 5 minutes. The mixture is gently agitated until it is homogeneous.
Extraction-mix: 1-butanol+0.1% (w/w) Tween80, 0.1M Na2HPO4/NaH2PO4 pH 7.0 • 1. The formulations are allowed to reach room temperature. • 2. To each Eppendorf tube 20 μl of the formulations are added. • 3. Add 490 μl 1-butanol followed by addition of 990 μl of the phosphate buffer. Vortex and incubate at RT for 30 min. • 4. Vortex again and centrifuge at RT at 14000 rpm for 20 min. Analyse the bottom aqueous phase for purity and HMWP formation.
Alternatively another extraction method can be used: • 1. The formulations are allowed to reach room temperature. • 2. To each Eppendorf tube 50 μl of the formulations are added. • 3. Add 950 μl of extraction buffer. Vortex well. Immediately after, load 800 μl (2×400 μl) for purification on the spin column. See spin protocol below. Ion Exchange on Q Spin Columns from Sartorius
(In the following all spin steps are for 5 min at 2000×g.) • 1. Apply 400 μl equilibration buffer to each spin column, and spin. Discard the flow-through. • 2. Apply 2×400 μl of each extracted sample. Spin the column between each application. Discard the flow-through. • 3. Apply 400 μl washing buffer to wash each spin column, and spin. Discard the wash. • 4. Apply 400 μl elution buffer to each spin column, and spin. Analyse the elution for purity and HMWP formation
Column: Waters BEH Shield RP18 UPLC column (2.1×100 mm, 1.7 μm)
Buffer A: 0.09M di-ammonium hydrogen phosphate pH 3.0, 10% (v/v) acetonitrile
Buffer B: 90% acetonitrile.
Column: Waters Insulin HMWP SEC column
Buffer: 500 mM NaCl, 10 mM NaH2PO4, 5 mM H3PO4, 50% (v/v) 2-propanol

[2] = target: T1, human insulin receptor (IR-A) (Homo sapiens, UniProt P06213); experiment: Insulin receptor affinity, SPA antibody capture assay, 0% HSA; format: binding; details: relative to affinity of human insulin
T1 sequence (P06213 28-746 isoform P06213-2 limits assumed): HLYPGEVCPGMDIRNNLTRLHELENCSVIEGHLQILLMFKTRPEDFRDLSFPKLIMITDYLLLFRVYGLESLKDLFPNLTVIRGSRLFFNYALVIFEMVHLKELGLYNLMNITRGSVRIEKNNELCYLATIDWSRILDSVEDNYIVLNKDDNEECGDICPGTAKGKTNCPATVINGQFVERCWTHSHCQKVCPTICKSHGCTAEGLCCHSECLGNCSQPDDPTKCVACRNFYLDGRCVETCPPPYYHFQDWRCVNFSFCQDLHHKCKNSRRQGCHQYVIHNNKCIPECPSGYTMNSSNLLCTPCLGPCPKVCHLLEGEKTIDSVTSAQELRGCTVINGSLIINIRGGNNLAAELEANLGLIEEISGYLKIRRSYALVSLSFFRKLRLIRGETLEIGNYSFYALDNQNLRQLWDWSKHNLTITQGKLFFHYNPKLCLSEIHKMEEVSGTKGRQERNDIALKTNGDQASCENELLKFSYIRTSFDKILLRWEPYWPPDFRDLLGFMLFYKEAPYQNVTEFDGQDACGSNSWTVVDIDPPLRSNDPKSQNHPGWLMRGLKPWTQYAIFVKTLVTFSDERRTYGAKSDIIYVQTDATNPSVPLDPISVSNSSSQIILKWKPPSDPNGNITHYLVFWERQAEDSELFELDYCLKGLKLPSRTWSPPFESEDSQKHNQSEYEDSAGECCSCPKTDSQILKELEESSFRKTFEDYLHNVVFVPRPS
T1 sequence (P06213 763-1382 partner limits assumed): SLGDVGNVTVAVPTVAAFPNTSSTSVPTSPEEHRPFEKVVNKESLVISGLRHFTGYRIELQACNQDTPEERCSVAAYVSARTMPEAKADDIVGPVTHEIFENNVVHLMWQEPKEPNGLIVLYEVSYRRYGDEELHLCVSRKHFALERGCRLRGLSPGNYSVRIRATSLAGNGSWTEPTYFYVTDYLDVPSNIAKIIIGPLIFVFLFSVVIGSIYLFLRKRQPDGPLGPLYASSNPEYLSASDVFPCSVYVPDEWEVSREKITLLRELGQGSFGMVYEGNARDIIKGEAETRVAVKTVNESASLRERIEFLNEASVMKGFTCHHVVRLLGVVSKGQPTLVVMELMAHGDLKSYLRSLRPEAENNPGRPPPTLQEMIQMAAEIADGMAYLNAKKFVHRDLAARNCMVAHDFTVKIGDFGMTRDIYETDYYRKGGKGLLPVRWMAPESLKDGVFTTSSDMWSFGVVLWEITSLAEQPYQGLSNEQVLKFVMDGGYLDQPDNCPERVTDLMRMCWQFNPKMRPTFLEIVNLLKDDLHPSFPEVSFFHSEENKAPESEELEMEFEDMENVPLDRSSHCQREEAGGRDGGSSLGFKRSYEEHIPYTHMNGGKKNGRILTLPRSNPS
Description: (§1) The affinity of the acylated insulin analogues of this invention for the human insulin receptor is determined by a SPA assay (Scintillation Proximity Assay) microtiterplate antibody capture assay. SPA-PVT antibody-binding beads, anti-mouse reagent (Amersham Biosciences, Cat No. PRNQ0017) are mixed with 25 ml of binding buffer (100 mM HEPES pH 7.8; 100 mM sodium chloride, 10 mM MgSO4, 0.025% Tween-20). Reagent mix for a single Packard Optiplate (Packard No. 6005190) is composed of 2.4 μl of a 1:5000 diluted purified recombinant human insulin receptor (either with or without exon 11), an amount of a stock solution of A14Tyr[^125I]-human insulin corresponding to 5000 cpm per 100 μl of reagent mix, 12 μl of a 1:1000 dilution of F12 antibody, 3 ml of SPA-beads and binding buffer to a total of 12 ml. A total of 100 μl reagent mix is then added to each well in the Packard Optiplate and a dilution series of the insulin derivative is made in the Optiplate from appropriate samples. The samples are then incubated for 16 hours while gently shaken. The phases are the then separated by centrifugation for 1 min and the plates counted in a Topcounter. The binding data were fitted using the nonlinear regression algorithm in the GraphPad Prism 2.01 (GraphPad Software, San Diego, Calif.) and affinities are expressed relative (in percentage (%)) to the affinity of human insulin.

[3] = target: T1, human insulin receptor (IR-A); details: relative to affinity of human insulin; […] HSA in binding buffer
Description: as §1
A related assay is also used wherein the binding buffer also contains 1.5% HSA in order to mimic physiological conditions

duodenum lumen enzymes = details: pH 7.4
Description: Degradation of insulin analogs using duodenum lumen enzymes (prepared by filtration of duodenum lumen content) from SPD rats. The assay is performed by a robot in a 96 well plate (2 ml) with 16 wells available for insulin analogs and standards. Insulin analogs ˜15 μM are incubated with duodenum enzymes in 100 mM Hepes, pH=7.4 at 37° C., samples are taken after 1, 15, 30, 60, 120 and 240 min and reaction quenched by addition of TFA. Intact insulin analogs at each point are determined by RP-HPLC. Degradation half time is determined by exponential fitting of the data and normalized to half time determined for the reference insulins, A14E, B25H, desB30 human insulin or human insulin in each assay. The amount of enzymes added for the degradation is such that the half time for degradation of the reference insulin is between 60 min and 180 min.

Row | Substance | HMWP formed (%) 2 weeks [1] [%] | Impurities formed (%) 2 weeks [1] [%] | Relative IR-A affinity (@ 0% HSA) (%) [2] [%] | Relative IR-A affinity (@ […] HSA) (%)e [3] [%] | Duodenum degradation. Relative stability vs. A14E, B25H, desB30 human insulin (duodenum lumen enzymes)
1 | A1(N^αDiglycolyl), A14E, B1(N^αdiglycolyl), B25H, desB27, B29K(N^εoctadecanedioyl-gGlu-2xOEG), desB30 human insulin [Example 59] | 0.1 | 2.4 |  |  | 
2 | I: NMe2Phe-VNQHLCGSHLVEALHLVCGERGFHYTPK([AEEA-AEEA-γGlu-C20 diacid]) / II: Me2Gly-IVEQCCTSICSLEQLENYCN (disulfide I:6-II:6, I:18-II:19, II:5-II:10) [Example 7, A1(N^α,N^α-Dimethyl), A14E, B1(NP,N^α-dimethyl), B16H, B25H, B29K(N^εeicosanedioyl-gGlu-2xOEG), desB30 human insulin] |  |  | 0.5 | 0.03 | 0.4
3 | I: NMe2Phe-VNQHLCGSHLVEALYLVCGERGFHYPK([γGlu-C16 diacid]) / II: Me2Gly-IVEQCCTSICSLEQLENYCN (disulfide I:6-II:6, I:18-II:19, II:5-II:10) [Example 8, A1G(N^α,N^α-Dimethyl), A14E, B1F(N^α,N^α-dimethyl), B25H, desB27, B29K(N^εhexadecanedioyl-gGlu), desB30 human insulin] |  |  | 2.7 | 0.18 | 6.8
4 | I: NMe2Phe-VNQHLCGSHLVEALYLVCGERGFHYPK([γGlu-C18 diacid]) / II: Me2Gly-IVEQCCTSICSLEQLENYCN (disulfide I:6-II:6, I:18-II:19, II:5-II:10) [Example 4, A1(N^α, N^α-Dimethyl), A14E, B1(N^α, N^α-dimethyl), B25H, desB27, B29K(N^εoctadecanedioyl-gGlu), desB30 human insulin] |  |  | 1.7 | 0.03 | 8.6
5 | I: {Phe(Nα-CONH2)}-VNQHLCGSHLVEALHLVCGERGFFYPK([AEEA-AEEA-γGlu-C20 diacid]) / II: Hydantoyl-IVEQCCTSICSLEQLENYCN (disulfide I:6-II:6, I:18-II:19, II:5-II:10) [Example 30, A1G(N^αcarbamoyl), A14E, B1F(N^αcarbamoyl), B16H, desB27, B29K(N^εeicosanedioyl-gGlu-2xOEG), desB30 human insulin] |  |  |  |  | 4.9
6 | I: {Phe(Nα-CONH2)}-VNQHLCGSHLVEALYLVCGERGFFYPK([AEEA-AEEA-γGlu-C16 diacid]) / II: Hydantoyl-IVEQCCTSICSLEQLENYCN (disulfide I:6-II:6, I:18-II:19, II:5-II:10) [Example 20] |  |  | 4.7 | 0.48 | 1.8
7 | I: {Phe(Nα-CONH2)}-VNQHLCGSHLVEALYLVCGERGFFYPK([AEEA-AEEA-γGlu-C20 diacid]) / II: Hydantoyl-IVEQCCTSICSLEQLENYCN (disulfide I:6-II:6, I:18-II:19, II:5-II:10) [Example 29, A1G(N^αcarbamoyl), A14E, B1F(N^αcarbamoyl), desB27, B29K(N^εeicosanedioyl-gGlu-2xOEG), desB30 human insulin] |  |  | 2.6 | 0.20 | 3.0
8 | I: {Phe(Nα-CONH2)}-VNQHLCGSHLVEALYLVCGERGFFYPK([γGlu-C16 diacid]) / II: Hydantoyl-IVEQCCTSICSLEQLENYCN (disulfide I:6-II:6, I:18-II:19, II:5-II:10) [Example 19, A1G(N(alpha)carbamoyl), A14E, B1F(N(alpha)carbamoyl), desB27, B29K(N(eps)hexadecanedioyl-gGlu), desB30 human insulin] |  |  | 5.0 | 0.14 | 3.0
9 | I: {Phe(Nα-CONH2)}-VNQHLCGSHLVEALYLVCGERGFFYPK([γGlu-C18 diacid]) / II: Hydantoyl-IVEQCCTSICSLEQLENYCN (disulfide I:6-II:6, I:18-II:19, II:5-II:10) [Example 23, A1(N^αCarbamoyl), A14E, B1(N^αCarbamoyl), desB27, B29K(N^εoctadecanedioyl-gGlu), desB30 human insulin] |  |  | 2.7 | 0.04 | 6.6
10 | I: {Phe(Nα-CONH2)}-VNQHLCGSHLVEALYLVCGERGFFYPK([γGlu-C20 diacid]) / II: Hydantoyl-IVEQCCTSICSLEQLENYCN (disulfide I:6-II:6, I:18-II:19, II:5-II:10) [Example 21] |  |  | 1.3 | 0.07 | 6.2
11 | I: {Phe(Nα-CONH2)}-VNQHLCGSHLVEALYLVCGERGFHYPK([AEEA-AEEA-γGlu-C18 diacid]) / II: Hydantoyl-IVEQCCTSICSLEQLENYCN (disulfide I:6-II:6, I:18-II:19, II:5-II:10) [Example 18, A1(N^αCarbamoyl), A14E, B1(N^αCarbamoyl), B25H, desB27, B29K(N^εoctadecandioyl-gGlu-2xOEG), desB30 human insulin] |  |  | 0.4 | 0.04 | 5.6
12 | I: {Phe(Nα-CONH2)}-VNQHLCGSHLVEALYLVCGERGFHYTPK([γGlu-C16 diacid]) / II: Hydantoyl-IVEQCCTSICSLEQLENYCN (disulfide I:6-II:6, I:18-II:19, II:5-II:10) [Example 13, A1(N^αCarbamoyl), A14E, B1(N^αCarbamoyl), B25H, B29K(N^εhexadecanedioyl-gGlu), desB30 human insulin] |  |  | 0.3 | 0.02 | 1.5
13 | I: {Phe(Nα-CONH2)}-VNQHLCGSHLVEALYLVCGERGFHYTPK([γGlu-C20 diacid]) / II: Hydantoyl-IVEQCCTSICSLEQLENYCN (disulfide I:6-II:6, I:18-II:19, II:5-II:10) [Example 14, A1(N^αCarbamoyl), A14E, B1(N^αCarbamoyl), B25H, B29K(Feicosanedioyl-gGlu), desB30 human insulin] |  |  | 0.2 | 0.00 | 0.9
